The values that follow come from paper PMC3557602 (Analytical biochemistry, 2012).

“Also recorded” adds a separate entry of the source. Structures can show the parent of a compound that is named as a salt. Some results are limits rather than exact numbers.

The target in series [1] is T1, Nterm-phos activity of human sEH (Homo sapiens, UniProt P34913).
T1 sequence (P34913 1-555): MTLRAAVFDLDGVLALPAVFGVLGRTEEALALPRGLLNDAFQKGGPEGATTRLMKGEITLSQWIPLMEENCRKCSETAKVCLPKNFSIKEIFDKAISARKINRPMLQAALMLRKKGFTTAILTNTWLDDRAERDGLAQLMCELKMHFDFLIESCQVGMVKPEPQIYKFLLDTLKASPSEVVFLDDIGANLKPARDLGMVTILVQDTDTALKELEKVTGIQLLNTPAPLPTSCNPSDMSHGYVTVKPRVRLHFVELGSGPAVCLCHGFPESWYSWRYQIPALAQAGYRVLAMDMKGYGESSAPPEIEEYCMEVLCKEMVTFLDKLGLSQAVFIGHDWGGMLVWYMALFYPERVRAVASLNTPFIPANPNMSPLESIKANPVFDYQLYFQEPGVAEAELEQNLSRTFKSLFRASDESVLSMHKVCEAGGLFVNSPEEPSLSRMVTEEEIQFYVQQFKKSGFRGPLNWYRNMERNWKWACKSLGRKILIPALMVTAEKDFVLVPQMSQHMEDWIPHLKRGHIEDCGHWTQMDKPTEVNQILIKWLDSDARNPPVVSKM
Kind of series: AttoPhos fluorescent endpoint HTS assay for sEH phosphatase activity. It is filed as biochemical. The conditions noted are these: for Nominal Inhibition (%): [E] 2.1 nM, AttoPhos 25 μM, 60 min, 96-well; for inhibition of Nterm-phos in library screen: pesticide library; for inhibition at 10 µM: read-out: inhibition of Nterm-phos in library screen.

Series [2] addresses T1, Nterm-phos activity of human sEH. Kind of series: AttoPhos assay in kinetic mode. In kind it is biochemical.
Series [3] concerns human alkaline phosphatase. Kind of series: Selectivity: alkaline phosphatase inhibition. In kind it is biochemical.
Series [4] relates to a series of esterases and amidases. Kind of series: Selectivity: esterases and amidases inhibition. It is filed as biochemical.
The next series deals with T2, Cterm-EH expressed alone (Homo sapiens, UniProt P34913).
T2 sequence (P34913 235-555 limits assumed): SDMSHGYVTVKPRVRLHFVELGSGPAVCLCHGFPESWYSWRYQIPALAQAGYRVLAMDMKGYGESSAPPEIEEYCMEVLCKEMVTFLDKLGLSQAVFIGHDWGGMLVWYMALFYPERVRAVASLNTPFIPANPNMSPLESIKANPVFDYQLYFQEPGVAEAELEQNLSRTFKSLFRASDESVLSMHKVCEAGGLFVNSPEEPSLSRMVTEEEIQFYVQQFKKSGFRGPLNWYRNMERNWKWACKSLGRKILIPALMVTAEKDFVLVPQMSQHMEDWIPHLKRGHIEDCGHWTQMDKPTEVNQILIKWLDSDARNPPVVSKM
In words: Inhibition of the C-terminal domain expressed separately. It is filed as biochemical. The conditions noted are these: 10 μM for 5 min.

Series [5] deals with T3, Nterm-phos expressed alone (Homo sapiens, UniProt P34913).
T3 sequence (P34913 1-224 limits assumed): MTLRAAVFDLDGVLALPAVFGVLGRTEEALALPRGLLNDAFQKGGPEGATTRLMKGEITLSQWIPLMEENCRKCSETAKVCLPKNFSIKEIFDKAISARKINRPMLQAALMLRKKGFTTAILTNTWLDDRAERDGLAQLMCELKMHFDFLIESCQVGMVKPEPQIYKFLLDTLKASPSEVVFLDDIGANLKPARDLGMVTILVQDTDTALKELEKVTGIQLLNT
In words: Inhibition of the N-terminal domain expressed separately. In kind it is biochemical. The conditions noted are these: 10 μM for 5 min.

The target of series [6] is T4, Cterm-EH activity of human sEH (Homo sapiens, UniProt P34913).
T4 sequence (P34913 1-555): T1 sequence (P34913 1-555)
Kind of series: Inhibition of sEH epoxide hydrolase activity. It is filed as biochemical. The conditions noted are these: for IC50: IC50 for Cterm-EH.

In series [7] the target is T1, Nterm-phos activity of human sEH. Kind of series: Kinetic constants with a model of irreversible inhibition, AttoPhos 25 μM. In kind it is biochemical.
Series [8] has as its target T4, Cterm-EH activity of human sEH. In words: Kinetic constants with a model of irreversible inhibition, PHOME 50 μM. It is filed as biochemical. The conditions noted are these: n = 3.
The target is the same in series [9]. In words: Reversibility. In kind it is biochemical.
Series [10] deals with T1, Nterm-phos activity of human sEH. Kind of series: Reversibility. It is filed as biochemical.
The target of the next series is T5, human microsomal EH (Homo sapiens, UniProt P07099).
T5 sequence (P07099 1-455): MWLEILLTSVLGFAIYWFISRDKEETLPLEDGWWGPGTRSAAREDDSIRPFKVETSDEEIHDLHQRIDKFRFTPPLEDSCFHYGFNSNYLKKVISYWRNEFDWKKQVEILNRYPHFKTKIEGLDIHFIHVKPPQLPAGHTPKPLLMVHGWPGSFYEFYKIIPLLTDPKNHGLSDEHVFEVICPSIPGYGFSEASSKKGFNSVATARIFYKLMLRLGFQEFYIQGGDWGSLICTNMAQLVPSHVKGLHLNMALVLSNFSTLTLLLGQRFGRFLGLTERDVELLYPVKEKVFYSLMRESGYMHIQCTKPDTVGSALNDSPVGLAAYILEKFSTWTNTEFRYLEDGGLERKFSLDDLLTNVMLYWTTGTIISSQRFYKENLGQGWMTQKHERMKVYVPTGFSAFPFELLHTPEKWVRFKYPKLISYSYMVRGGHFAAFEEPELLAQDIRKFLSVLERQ
Kind of series: Selectivity: microsomal EH inhibition. In kind it is biochemical.

The conditions of series [11]: cited from earlier work.
The mark [12] stands for this setting: read-out: IC50 (nominal inhibition column), nominal / overall value.
Where [13] appears, read: read-out: IC50 Day 1, Day 1, 3 plates.
The mark [14] stands for this setting: read-out: IC50 Day 2, Day 2, 3 plates.
Setting [15] is: read-out: IC50 Day 3, Day 3, 3 plates.
[16] abbreviates: 20 nM human sEH with 10 μM for 15 min, then dialysis.
[17] abbreviates: 5 mM glutathione before 10 μM for 5 min.

For `CCCCCCCCCCCCS(=O)(=O)O` [C00002, dodecyl sulfonate], the “Nominal Inhibition (%)” value in series [1] ([I] 1.6 μM) turned out to be 9 ± 6%; in series [1] ([I] 3.1 μM) it was 26 ± 4%; in series [1] ([I] 6.3 μM) it was 54 ± 4%; in [1] ([I] 12.5 μM), 78 ± 3%; in series [1] ([I] 25 μM), 89 ± 1%. Besides, the IC50 in series [1] (setting [12]) was determined as 6.6 ± 0.8 µM; in series [1] (setting [13]), 6.3 ± 0.3 µM; in series [1] (setting [14]), 6.1 ± 0.3 µM; in series [1] (setting [15]), 7.5 ± 1.2 µM.

Turning to `CCCCCCCCCCCCOP(=O)(O)O` [C00003, dodecyl phosphoric acid], the “inhibition of Nterm-phos in library screen” value in [1] (1 μM) and in series [1] (10 μM) was “more than 50%” throughout. Besides, the “Nominal Inhibition (%)” value in series [1] ([I] 0.8 μM) is recorded as 19 ± 4%; in series [1] ([I] 1.6 μM), 39 ± 5%; in series [1] ([I] 3.1 μM) it was 70 ± 3%; in series [1] ([I] 6.3 μM), 91 ± 1%; in series [1] ([I] 12.5 μM), 98 ± 1%. In addition, the IC50 came to 2.2 ± 0.3 µM in series [1] (setting [12]), 1.8 ± 0.2 µM in series [1] (setting [13]), 2.3 ± 0.2 µM in series [1] (setting [14]) and 2.4 ± 0.1 µM in series [1] (setting [15]).

With `O=C1c2ccccc2C(=O)N1SC(Cl)(Cl)Cl` [Folpet], it took 25 ± 3 µM to reach half-maximal inhibition in series [2] (IC50). Besides, the inhibition at 10 µM in series [1] was more than 50%.

In series [2], `S=C(S)NCCNC(=S)S` [Nabam] gave an IC50 of more than 100 µM. Besides, the inhibition at 10 µM in series [1] was more than 50%.

As for `O=c1c2ccccc2[se]n1-c1ccccc1` [ebselen], in series [3], the “inhibition of human alkaline phosphatase” value is “did not inhibit; also recorded: not the other enzymes tested”. The IC50 in series [2] stood at 0.4 ± 0.02 µM; in [6] (incubation time 1 min), 2 ± 0.3 µM; in [6] (incubation time 15 min), 0.85 ± 0.05 µM. Also, in [4], the “inhibition of esterases and amidases” value is reported as “not the other enzymes tested”. Besides, on Cterm-EH expressed alone, the “inhibition of Cterm-EH expressed alone” value is “did not significantly inhibit”. Further, the “inhibition of Nterm-phos expressed alone” value in series [5] is recorded as “totally inhibited”. Also, the “IC50 ratio Cterm-EH over Nterm-phos” value in [6] is 5 fold. In addition, the Ki in series [7] came out at 0.55 µM. For the same compound, in series [7], the “ratio of ki, Nterm-phos over Cterm-EH” value is listed as “around 7 fold”. Further, in series [7] (n = 3), the “first-order formation rate of the covalent enzyme-inhibitor complex (ki), Nterm-phos” value amounted to 2.58 ± 0.05 min⁻¹. In [8], the “first-order formation rate of the covalent enzyme-inhibitor complex (ki), Cterm-EH” value was found to be 0.39 ± 0.07 min⁻¹. Also, in series [9] (setting [16]), the “recovery of Cterm EH activity after dialysis” value is recorded as “not able to recover any”. For the same compound, the “effect of glutathione pretreatment on Cterm-EH activity” value in series [9] (setting [17]) is listed as “protected”. Moreover, in [9] (glutathione added 5 min after exposure), the “Cterm-EH activity recovered on glutathione added after exposure” value is given as 30%. In addition, the “time to stable inhibition of Nterm-phos” value in series [10] is reported as “less than a minute”. Further, the “recovery of Nterm-phos activity after dialysis” value in series [10] (setting [16]) is given as “not able to recover any”. Also, in series [10] (setting [17]), the “effect of glutathione pretreatment on Nterm-phos activity” value is on record as “protected”. In addition, on human microsomal EH, the “inhibition of human microsomal EH” value was “not the other enzymes tested”.

Take `CC(=O)N1CCN(c2ccc(OCC3COC(Cn4ccnc4)(c4ccc(Cl)cc4Cl)O3)cc2)CC1` (stereo not shown) [ketoconazole]: in series [2], the IC50 is more than 100 µM.

With `O=C(O)c1ccccc1C(=O)Nc1ccc(S(=O)(=O)Nc2nccs2)cc1` [phthalyl-sulfathiazole], in [2], the 50% inhibitory concentration (IC50) is more than 100 µM.

For the compound `CCCCC(CC)CCC(CC(C)C)OS(=O)(=O)O` (stereo not shown) [sodium tetradecyl sulfate], in [11], the critical micelle concentration entry is reported as “around 2 mM”.

What is called IC50 is the midpoint of a concentration-inhibition curve. Broadly, the inhibition is the share of the control response that was lost under treatment.
